The text below walks through data of patent US11401271B2, “Fused heterocyclic compound, pyrazole-ring-containing fused heterocyclic compound, agricultural composition containing thereof, and method of using the composition” (SOUTH CHINA AGRICULTURAL UNIVERSITY, priority 2017, dated 2022).

The term mortality denotes the share of the test organisms that died.

In one data set the test system is Spodoptera exigua. The experiment in a line: whole plant or invertebrate. In kind it is in vivo. The settings on record: 500 ppm; 2nd-instar larvae, leaf immersion feeding. How it is done:
(2) Insecticidal Activity on 2nd-Instar Larvae of Spodoptera exigua.
Spodoptera exigua is a lepidoptera pest with a chewing mouthpart and is a common vegetable pest. The 2nd-instar larvae of Spodoptera exigua were used as test objects and tested by using a leaf immersion feeding method.
(§1) Operation process: Samples were weighed accurately, and respectively added with 200 μL, of dimethyl sulfoxide to prepare 10 g/L mother liquor which was diluted into a concentration of 500 ppm with an aqueous solution containing 0.05% of Tween-80 during the test. A hole puncher with a diameter of 1.0 cm was used to make cleaned cabbage leaves into leaf discs. The leaf discs were immersed in a liquid medicine, taken out after 5 seconds, air-dried naturally, and transferred into a clean vessel. About 35 2nd -instar larvae of Spodoptera exigua were put into the vessel and fed at a constant temperature of 28° C. Each concentration was repeated 3 times, and an aqueous solution containing 0.05% of Tween-80 was used as a control group. After being treated for 24 hours, a number of dead Spodoptera exigua was counted, and a mortality (%) was calculated according to a formula that mortality (%)=(number of live larvae in the control group −number of treated live larvae)/number of live larvae in the control group * 100%.
With “9-chloro-2-cyano-3-cyclohexanesulfinyl-5-(2′2-dimethoxy)-7-trifluoromethyl-4,5-dihydropyrazole[1,5-α]quinazoline-5-methyl formate [d-12]”, the “Spodoptera exigua Mortality (%)” value was 96%.

On to `COC(=O)CC1(C(=O)OC)Nc2c([S+]([O-])C(F)(F)F)c(C#N)nn2-c2cc(C(F)(F)F)cc(Cl)c21` (racemic) [c-8], for which the “Spodoptera exigua Mortality (%)” value is reported as 100%.

Staying with this data set, now noted: Spodoptera exigua, 24 h, read-out: Spodoptera exigua Mortality (%) 500 ppm.
In the case of `CC1(C)Nc2c(Br)c(C#N)nn2-c2ccccc21` [Compound A2], the mortality at 500 ppm was found to be 100%.

On to `CN1c2c(Br)c(C#N)nn2-c2ccccc2C1(C)C` [Compound A3], for which the mortality at 500 ppm amounted to 100%.

On to `CNC(=O)c1nn2c(c1Br)NC(C)(C)c1ccccc1-2` [Compound A6], for which the mortality at 500 ppm came out at 100%.

For `CCSc1c(C#N)nn2c1NC(C)(C)c1ccccc1-2` [Compound A9], the mortality at 500 ppm was found to be 100%.

For `Nc1ccc2c(c1)-n1nc(C(F)(F)F)c(Br)c1NC2(C(F)(F)F)C(F)(F)F` [Compound A11], the mortality at 500 ppm amounted to 100%.

In the case of `CC[S+]([O-])c1c(C(F)(F)F)nn2c1NC(C(F)(F)F)(C(F)(F)F)c1ccc(N)cc1-2` (stereo not drawn) [Compound A14], the mortality at 500 ppm amounted to 90%.

Regarding `CC(C)(C)Nc1c(C#N)nn2c1NC(C)(C)c1ccccc1-2` [Compound A16], the mortality at 500 ppm came out at 100%.

A further data set deals with Plutella xylostella. The data set is described as follows: whole plant or invertebrate. In kind it is in vivo. The note with it: 500 ppm; 2nd-instar larvae, leaf immersion feeding. How it is done:
(1) Insecticidal Activity on 2nd-Instar Larvae of Plutella xylostella.
Plutella xylostella (L.) is a lepidoptera pest with a chewing mouthpart and is a common vegetable pest. The 2nd-instar larvae of Plutella xylostella were used as test objects and tested by using a leaf immersion feeding method.
as §1, with “μL” for “μL,”, “2nd-instar” for “2nd -instar”, “Plutella xylostella” for “Spodoptera exigua”, “group−number” for “group −number”, “group*100%.” for “group * 100%.”
Regarding “9-chloro-2-cyano-3-cyclohexanesulfinyl-5-(2′2-dimethoxy)-7-trifluoromethyl-4,5-dihydropyrazole[1,5-α]quinazoline-5-methyl formate [d-12]”, the “Plutella xylostella Mortality (%)” value is reported as 86%.

As to `COC(=O)CC1(C(=O)OC)Nc2c([S+]([O-])C(F)(F)F)c(C#N)nn2-c2cc(C(F)(F)F)cc(Cl)c21` (racemic) [c-8], the “Plutella xylostella Mortality (%)” value was determined as 100%.

The same data set, now with this note: Plutella xylostella, read-out: Plutella xylostella Mortality (%) 500 ppm.
In the case of `CC1(C)Nc2c(Br)c(C#N)nn2-c2ccccc21` [Compound A2], the mortality at 500 ppm was found to be 97%.

Consider `CN1c2c(Br)c(C#N)nn2-c2ccccc2C1(C)C` [Compound A3], for which the mortality at 500 ppm amounted to 90%.

For `CNC(=O)c1nn2c(c1Br)NC(C)(C)c1ccccc1-2` [Compound A6], the mortality at 500 ppm amounted to 100%.

Consider `CCSc1c(C#N)nn2c1NC(C)(C)c1ccccc1-2` [Compound A9], for which the mortality at 500 ppm was found to be 100%.

Take `Nc1ccc2c(c1)-n1nc(C(F)(F)F)c(Br)c1NC2(C(F)(F)F)C(F)(F)F` [Compound A11]: the mortality at 500 ppm stood at 100%.

Regarding `CC[S+]([O-])c1c(C(F)(F)F)nn2c1NC(C(F)(F)F)(C(F)(F)F)c1ccc(N)cc1-2` (stereo not drawn) [Compound A14], the mortality at 500 ppm stood at 100%.

For `CC(C)(C)Nc1c(C#N)nn2c1NC(C)(C)c1ccccc1-2` [Compound A16], the mortality at 500 ppm came out at 86%.

A further data set concerns Solenopsis invicta. The data set is described as follows: whole plant or invertebrate. In kind it is in vivo. The note with it: 100 ppm; 24 h; water test tube poison-feeding. How it is done:
(4) Insecticidal Activity on Solenopsis invicta.
As a hymenoptera pests and a social insect, Solenopsis invicta is one of the most destructive invasive organisms. Solenopsis invicta were used as test objects and tested by using a water test tube poison-feeding method.
Operation process: Samples were weighed accurately, and respectively added with 200 μL of dimethyl sulfoxide to prepare 10 g/L mother liquor which was diluted into a concentration of 100 ppm with a mixed aqueous solution containing 0.05% of Tween-80 and 5% of honey during the test. […] The raising test tube was placed in a raising box horizontally, and a small amount of ham sausages were added to the raising test tube as food to raise the Solenopsis invicta at a constant temperature of 25° C. After being treated for 24 hours and 72 hours, a number of live Solenopsis invicta and a number of dead Solenopsis invicta were counted, and a mortality (%) was calculated according to a formula that mortality (%)=(number of live Solenopsis invicta in the control group−number of treated live Solenopsis invicta)/number of live Solenopsis invicta in the control group*100%.
“9-chloro-2-cyano-3-cyclohexanesulfinyl-5-(2′2-dimethoxy)-7-trifluoromethyl-4,5-dihydropyrazole[1,5-α]quinazoline-5-methyl formate [d-12]”: the “Solenopsis invicta Mortality (%) 24 h” value came out at 20%.

Regarding `COC(=O)CC1(C(=O)OC)Nc2c([S+]([O-])C(F)(F)F)c(C#N)nn2-c2cc(C(F)(F)F)cc(Cl)c21` (racemic) [c-8], the “Solenopsis invicta Mortality (%) 24 h” value was found to be 20%.

Staying with this data set, now noted: 100 ppm; 72 h; water test tube poison-feeding.
For the compound “9-chloro-2-cyano-3-cyclohexanesulfinyl-5-(2′2-dimethoxy)-7-trifluoromethyl-4,5-dihydropyrazole[1,5-α]quinazoline-5-methyl formate [d-12]”, the “Solenopsis invicta Mortality (%) 72 h” value is 100%.

Turning to `COC(=O)CC1(C(=O)OC)Nc2c([S+]([O-])C(F)(F)F)c(C#N)nn2-c2cc(C(F)(F)F)cc(Cl)c21` (racemic) [c-8], the “Solenopsis invicta Mortality (%) 72 h” value turned out to be 100%.

The data set is the same for the next values; noted with them: Solenopsis invicta, 24 h, read-out: Solenopsis invicta Mortality (%) 100 ppm 24 h, 100 ppm; 24 h; water test tube poison-feeding.
Regarding `CC1(C)Nc2c(Br)c(C#N)nn2-c2ccccc21` [Compound A2], the mortality at 100 ppm is 19%.

In the case of `CN1c2c(Br)c(C#N)nn2-c2ccccc2C1(C)C` [Compound A3], the mortality at 100 ppm amounted to 25%.

As for `CNC(=O)c1nn2c(c1Br)NC(C)(C)c1ccccc1-2` [Compound A6], the mortality at 100 ppm turned out to be 44%.

With `CCSc1c(C#N)nn2c1NC(C)(C)c1ccccc1-2` [Compound A9], the mortality at 100 ppm turned out to be 24%.

In the case of `Nc1ccc2c(c1)-n1nc(C(F)(F)F)c(Br)c1NC2(C(F)(F)F)C(F)(F)F` [Compound A11], the mortality at 100 ppm was determined as 34%.

For `CC[S+]([O-])c1c(C(F)(F)F)nn2c1NC(C(F)(F)F)(C(F)(F)F)c1ccc(N)cc1-2` (stereo not drawn) [Compound A14], the mortality at 100 ppm is 26%.

For the compound `CC(C)(C)Nc1c(C#N)nn2c1NC(C)(C)c1ccccc1-2` [Compound A16], the mortality at 100 ppm was determined as 20%.

The data set is the same for the next values; noted with them: Solenopsis invicta, 72 h, read-out: Solenopsis invicta Mortality (%) 100 ppm 72 h, 100 ppm; 72 h; water test tube poison-feeding.
With `CC1(C)Nc2c(Br)c(C#N)nn2-c2ccccc21` [Compound A2], the mortality at 100 ppm came out at 93%.

On to `CN1c2c(Br)c(C#N)nn2-c2ccccc2C1(C)C` [Compound A3], for which the mortality at 100 ppm was 100%.

In the case of `CNC(=O)c1nn2c(c1Br)NC(C)(C)c1ccccc1-2` [Compound A6], the mortality at 100 ppm came to 100%.

`CCSc1c(C#N)nn2c1NC(C)(C)c1ccccc1-2` [Compound A9]: the mortality at 100 ppm is 100%.

For `Nc1ccc2c(c1)-n1nc(C(F)(F)F)c(Br)c1NC2(C(F)(F)F)C(F)(F)F` [Compound A11], the mortality at 100 ppm worked out at 100%.

Consider `CC[S+]([O-])c1c(C(F)(F)F)nn2c1NC(C(F)(F)F)(C(F)(F)F)c1ccc(N)cc1-2` (stereo not drawn) [Compound A14], for which the mortality at 100 ppm was determined as 93%.

As for `CC(C)(C)Nc1c(C#N)nn2c1NC(C)(C)c1ccccc1-2` [Compound A16], the mortality at 100 ppm came out at 87%.

For another data set, the system named is Aphis craccivora. The data set is described as follows: whole plant or invertebrate. It is filed as in vivo. The settings on record: 500 ppm; wingless adults, immersion 5 seconds, counted after 24 hours. How it is done:
(3) Insecticidal Activity on Aphid Adults.
Aphid is a homoptera pest with a piercing-sucking mouthpart and is a common vegetable pest. Aphis craccivora were taken as test objects and tested by using an impregnation method.
Operation process: Samples were weighed accurately, and respectively added with 200 μL of dimethyl sulfoxide to prepare 10 g/L mother liquor which was diluted into a concentration of 500 ppm with an aqueous solution containing 0.05% of Tween-80 during the test. After the wingless Aphis craccivora adults stably sucked on bean sprouts, the wingless Aphis craccivora adults together with the bean sprouts were immersed into a liquid medicine with a concentration of 500 ppm, taken out after 5 seconds, air-dried naturally, transferred into a clean vessel, and fed at a constant temperature of 23° C. Each concentration was repeated 3 times, and an aqueous solution containing 0.05% of Tween-80 was used as a control group. After being treated for 24 hours, a number of dead Aphis craccivora was counted, and a mortality (%) was calculated according to a formula that mortality (%)=(number of live Aphis craccivora in the control group−number of treated live Aphis craccivora)/number of live Aphis craccivora in the control group*100%.
Turning to “9-chloro-2-cyano-3-cyclohexanesulfinyl-5-(2′2-dimethoxy)-7-trifluoromethyl-4,5-dihydropyrazole[1,5-α]quinazoline-5-methyl formate [d-12]”, the “Aphis craccivora Mortality (%)” value is reported as 100%.

Consider `COC(=O)CC1(C(=O)OC)Nc2c([S+]([O-])C(F)(F)F)c(C#N)nn2-c2cc(C(F)(F)F)cc(Cl)c21` (racemic) [c-8], for which the “Aphis craccivora Mortality (%)” value came out at 100%.

Still in this data set, the particulars now being: Aphis craccivora, 24 h, read-out: Aphis craccivora Mortality (%) 500 ppm.
As to `CC1(C)Nc2c(Br)c(C#N)nn2-c2ccccc21` [Compound A2], the mortality at 500 ppm is 100%.

On to `CN1c2c(Br)c(C#N)nn2-c2ccccc2C1(C)C` [Compound A3], for which the mortality at 500 ppm is 100%.

In the case of `CNC(=O)c1nn2c(c1Br)NC(C)(C)c1ccccc1-2` [Compound A6], the mortality at 500 ppm is 100%.

On to `CCSc1c(C#N)nn2c1NC(C)(C)c1ccccc1-2` [Compound A9], for which the mortality at 500 ppm came out at 100%.

`Nc1ccc2c(c1)-n1nc(C(F)(F)F)c(Br)c1NC2(C(F)(F)F)C(F)(F)F` [Compound A11]: the mortality at 500 ppm amounted to 100%.

For the compound `CC[S+]([O-])c1c(C(F)(F)F)nn2c1NC(C(F)(F)F)(C(F)(F)F)c1ccc(N)cc1-2` (stereo not drawn) [Compound A14], the mortality at 500 ppm was determined as 100%.

Regarding `CC(C)(C)Nc1c(C#N)nn2c1NC(C)(C)c1ccccc1-2` [Compound A16], the mortality at 500 ppm is 100%.
